Laboratory results: the kinase profiling compilation of Christmann-Franck et al. (2016)

Legend:
Assay in all cases: radiometric filter-binding kinase assay, Kinase HotSpot
Details in all cases: compound 0.5 µM; ATP 10 µM
CSF1R (human) = CSF1R (human) (UniProt P07333)
SRPK2 (human) = SRPK2 (human) (UniProt P78362)
PRKD2 (human) = PRKD2 (human) (UniProt Q9BZL6)
BRSK2 (human) = BRSK2 (human) (UniProt Q8IWQ3)
TEC (human) = TEC (human) (UniProt P42680)
SRPK1 (human) = SRPK1 (human) (UniProt Q96SB4)
RET (human) = RET (human) (UniProt P07949)
Chain of RET (human) (P07949 whole entry, looked up): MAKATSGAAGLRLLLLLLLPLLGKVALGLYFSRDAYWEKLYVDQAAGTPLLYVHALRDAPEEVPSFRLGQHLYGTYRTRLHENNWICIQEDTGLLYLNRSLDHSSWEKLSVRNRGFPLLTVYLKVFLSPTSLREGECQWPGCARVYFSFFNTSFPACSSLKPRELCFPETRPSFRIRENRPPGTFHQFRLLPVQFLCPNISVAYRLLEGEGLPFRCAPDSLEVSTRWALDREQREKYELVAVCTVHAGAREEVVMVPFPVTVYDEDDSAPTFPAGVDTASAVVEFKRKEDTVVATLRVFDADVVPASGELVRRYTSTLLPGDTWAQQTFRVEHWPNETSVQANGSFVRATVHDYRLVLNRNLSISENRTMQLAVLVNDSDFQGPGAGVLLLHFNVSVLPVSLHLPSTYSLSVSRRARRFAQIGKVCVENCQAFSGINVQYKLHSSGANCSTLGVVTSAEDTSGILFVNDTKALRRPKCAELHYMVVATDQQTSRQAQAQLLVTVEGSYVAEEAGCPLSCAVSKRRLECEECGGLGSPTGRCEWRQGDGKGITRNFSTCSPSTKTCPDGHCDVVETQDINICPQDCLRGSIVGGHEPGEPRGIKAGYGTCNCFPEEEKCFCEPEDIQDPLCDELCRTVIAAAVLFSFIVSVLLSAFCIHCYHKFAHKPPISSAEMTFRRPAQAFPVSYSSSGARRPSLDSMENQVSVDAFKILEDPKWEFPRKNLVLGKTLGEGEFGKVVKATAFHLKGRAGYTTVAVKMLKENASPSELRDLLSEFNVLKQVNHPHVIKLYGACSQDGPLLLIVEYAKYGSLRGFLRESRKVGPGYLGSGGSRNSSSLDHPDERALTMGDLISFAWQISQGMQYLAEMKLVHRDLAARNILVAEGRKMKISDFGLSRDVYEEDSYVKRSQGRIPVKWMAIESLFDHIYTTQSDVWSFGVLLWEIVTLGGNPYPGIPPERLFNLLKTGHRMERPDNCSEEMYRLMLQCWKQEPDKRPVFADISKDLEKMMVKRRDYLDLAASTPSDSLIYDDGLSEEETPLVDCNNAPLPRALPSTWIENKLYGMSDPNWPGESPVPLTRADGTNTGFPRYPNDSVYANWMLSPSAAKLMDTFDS

MAP2K2 (human) = MAP2K2 (human) (UniProt P36507)
RAF1 (human) = RAF1 (human) (UniProt P04049)
CDK6 CCND3 (human) = CDK6 CCND3 (human) (UniProt P30281+Q00534)
RPS6KA6 KD1 KD2 (human) = RPS6KA6 KD1 KD2 (human) (UniProt Q9UK32)
DYRK2 (human) = DYRK2 (human) (UniProt Q92630)
CAMK2D (human) = CAMK2D (human) (UniProt Q13557)
RPS6KA4 KD2 (human) = RPS6KA4 KD2 (human) (UniProt O75676)
TYRO3 (human) = TYRO3 (human) (UniProt Q06418)
FLT3 (human) = FLT3 (human) (UniProt P36888)
CHEK2 (human) = CHEK2 (human) (UniProt O96017)
VRK1 (human) = VRK1 (human) (UniProt Q99986)
TGFBR2 (human) = TGFBR2 (human) (UniProt P37173)
EPHA2 (human) = EPHA2 (human) (UniProt P29317)
MAP2K1 (human) = MAP2K1 (human) (UniProt Q02750)
Chain of MAP2K1 (human) (Q02750 whole entry, looked up): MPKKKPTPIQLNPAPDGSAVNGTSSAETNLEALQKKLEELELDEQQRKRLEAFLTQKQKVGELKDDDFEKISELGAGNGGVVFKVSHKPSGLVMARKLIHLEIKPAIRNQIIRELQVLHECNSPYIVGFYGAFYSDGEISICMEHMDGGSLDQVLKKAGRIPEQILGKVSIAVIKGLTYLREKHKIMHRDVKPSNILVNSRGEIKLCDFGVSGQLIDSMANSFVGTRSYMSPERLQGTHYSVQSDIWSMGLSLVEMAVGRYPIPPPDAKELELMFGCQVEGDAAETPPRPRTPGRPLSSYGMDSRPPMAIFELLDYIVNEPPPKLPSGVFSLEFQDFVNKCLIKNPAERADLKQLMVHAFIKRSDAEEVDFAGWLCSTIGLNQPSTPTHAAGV

ACVR1B (human) = ACVR1B (human) (UniProt P36896)
HCK (human) = HCK (human) (UniProt P08631)
EPHB3 (human) = EPHB3 (human) (UniProt P54753)
DYRK1A (human) = DYRK1A (human) (UniProt Q13627)
RPS6KB1 (human) = RPS6KB1 (human) (UniProt P23443)
SRMS (human) = SRMS (human) (UniProt Q9H3Y6)
Chain of SRMS (human) (Q9H3Y6 whole entry, looked up): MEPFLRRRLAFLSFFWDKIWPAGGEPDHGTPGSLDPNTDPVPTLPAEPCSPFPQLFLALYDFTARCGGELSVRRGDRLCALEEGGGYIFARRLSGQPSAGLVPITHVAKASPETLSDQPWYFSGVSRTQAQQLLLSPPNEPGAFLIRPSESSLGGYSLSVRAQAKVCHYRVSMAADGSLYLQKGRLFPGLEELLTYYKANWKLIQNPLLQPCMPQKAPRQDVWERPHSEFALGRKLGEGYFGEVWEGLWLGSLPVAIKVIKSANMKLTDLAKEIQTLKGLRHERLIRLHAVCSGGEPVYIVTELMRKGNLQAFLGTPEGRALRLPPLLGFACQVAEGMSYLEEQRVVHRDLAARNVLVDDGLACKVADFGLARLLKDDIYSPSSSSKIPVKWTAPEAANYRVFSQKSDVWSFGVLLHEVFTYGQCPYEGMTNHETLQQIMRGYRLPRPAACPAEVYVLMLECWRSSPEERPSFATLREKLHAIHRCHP

NEK2 (human) = NEK2 (human) (UniProt P51955)
FGFR1 (human) = FGFR1 (human) (UniProt P11362)
MAP3K14 (human) = MAP3K14 (human) (UniProt Q99558)
CSNK1G2 (human) = CSNK1G2 (human) (UniProt P78368)
DYRK3 (human) = DYRK3 (human) (UniProt O43781)
Chain of DYRK3 (human) (O43781 whole entry, looked up): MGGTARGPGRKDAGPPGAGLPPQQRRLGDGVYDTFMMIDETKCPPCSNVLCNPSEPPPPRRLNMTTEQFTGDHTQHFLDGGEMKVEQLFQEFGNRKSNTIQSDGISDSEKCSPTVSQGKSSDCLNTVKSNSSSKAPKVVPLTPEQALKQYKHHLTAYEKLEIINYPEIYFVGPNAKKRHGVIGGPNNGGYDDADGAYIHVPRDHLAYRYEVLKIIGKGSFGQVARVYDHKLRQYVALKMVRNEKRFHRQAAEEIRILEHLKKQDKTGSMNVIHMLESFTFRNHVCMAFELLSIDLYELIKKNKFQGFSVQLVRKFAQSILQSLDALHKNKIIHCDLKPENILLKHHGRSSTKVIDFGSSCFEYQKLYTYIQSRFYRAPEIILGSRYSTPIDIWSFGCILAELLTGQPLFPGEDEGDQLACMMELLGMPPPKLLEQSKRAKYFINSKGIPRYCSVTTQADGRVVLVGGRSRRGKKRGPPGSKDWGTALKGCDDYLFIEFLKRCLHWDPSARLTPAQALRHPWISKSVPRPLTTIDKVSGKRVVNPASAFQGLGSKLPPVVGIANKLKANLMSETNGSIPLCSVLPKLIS

BRSK1 (human) = BRSK1 (human) (UniProt Q8TDC3)
CLK1 (human) = CLK1 (human) (UniProt P49759)
FRK (human) = FRK (human) (UniProt P42685)
DYRK1B (human) = DYRK1B (human) (UniProt Q9Y463)
GSG2 (human) = GSG2 (human) (UniProt Q8TF76)
Chain of GSG2 (human) (Q8TF76 whole entry, looked up): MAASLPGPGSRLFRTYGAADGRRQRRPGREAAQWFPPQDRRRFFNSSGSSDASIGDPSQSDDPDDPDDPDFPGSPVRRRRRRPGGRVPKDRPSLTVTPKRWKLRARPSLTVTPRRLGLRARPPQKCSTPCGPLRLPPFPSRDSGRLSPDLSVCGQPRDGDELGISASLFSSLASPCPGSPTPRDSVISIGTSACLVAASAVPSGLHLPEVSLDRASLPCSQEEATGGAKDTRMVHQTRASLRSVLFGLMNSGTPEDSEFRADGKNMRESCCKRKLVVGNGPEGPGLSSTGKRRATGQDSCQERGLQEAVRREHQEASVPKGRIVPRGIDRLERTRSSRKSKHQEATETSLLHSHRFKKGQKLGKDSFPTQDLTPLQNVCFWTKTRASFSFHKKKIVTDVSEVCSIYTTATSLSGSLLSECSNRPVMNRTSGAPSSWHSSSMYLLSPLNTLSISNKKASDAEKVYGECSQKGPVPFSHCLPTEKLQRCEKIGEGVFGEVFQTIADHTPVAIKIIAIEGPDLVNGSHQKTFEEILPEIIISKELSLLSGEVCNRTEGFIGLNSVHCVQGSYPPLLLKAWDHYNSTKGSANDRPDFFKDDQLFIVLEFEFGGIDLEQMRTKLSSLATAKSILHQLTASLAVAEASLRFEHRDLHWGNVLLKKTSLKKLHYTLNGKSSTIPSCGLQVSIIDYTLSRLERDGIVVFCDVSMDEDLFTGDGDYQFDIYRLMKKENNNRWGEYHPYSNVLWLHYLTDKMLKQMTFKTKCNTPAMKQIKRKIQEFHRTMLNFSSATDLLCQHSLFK

CDK5 CDK5R1 p35 (human) = CDK5 CDK5R1 p35 (human) (UniProt Q00535+Q15078)
NEK6 (human) = NEK6 (human) (UniProt Q9HC98)
Chain of NEK6 (human) (Q9HC98 whole entry, looked up): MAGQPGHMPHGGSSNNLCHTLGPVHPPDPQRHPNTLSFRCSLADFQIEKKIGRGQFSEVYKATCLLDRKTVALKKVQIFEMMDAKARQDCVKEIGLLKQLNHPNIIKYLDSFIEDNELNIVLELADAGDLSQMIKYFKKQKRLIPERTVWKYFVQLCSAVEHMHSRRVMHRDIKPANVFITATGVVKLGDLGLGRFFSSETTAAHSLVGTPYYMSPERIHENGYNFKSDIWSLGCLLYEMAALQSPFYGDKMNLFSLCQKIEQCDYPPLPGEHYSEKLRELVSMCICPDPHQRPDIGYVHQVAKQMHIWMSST

PLK3 (human) = PLK3 (human) (UniProt Q9H4B4)
MERTK (human) = MERTK (human) (UniProt Q12866)
CSNK1A1 (human) = CSNK1A1 (human) (UniProt P48729)
Chain of CSNK1A1 (human) (P48729 whole entry, looked up): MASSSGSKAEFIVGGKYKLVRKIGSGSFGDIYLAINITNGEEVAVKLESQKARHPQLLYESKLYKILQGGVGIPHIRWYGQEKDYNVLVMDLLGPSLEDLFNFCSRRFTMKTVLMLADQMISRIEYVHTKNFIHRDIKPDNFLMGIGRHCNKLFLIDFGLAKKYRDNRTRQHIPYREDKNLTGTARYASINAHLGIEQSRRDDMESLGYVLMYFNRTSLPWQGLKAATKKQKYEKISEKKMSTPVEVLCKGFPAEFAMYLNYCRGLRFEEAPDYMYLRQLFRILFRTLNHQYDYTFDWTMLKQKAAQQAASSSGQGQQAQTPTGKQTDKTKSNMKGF

Chain of TEC (human) (P42680 whole entry, looked up): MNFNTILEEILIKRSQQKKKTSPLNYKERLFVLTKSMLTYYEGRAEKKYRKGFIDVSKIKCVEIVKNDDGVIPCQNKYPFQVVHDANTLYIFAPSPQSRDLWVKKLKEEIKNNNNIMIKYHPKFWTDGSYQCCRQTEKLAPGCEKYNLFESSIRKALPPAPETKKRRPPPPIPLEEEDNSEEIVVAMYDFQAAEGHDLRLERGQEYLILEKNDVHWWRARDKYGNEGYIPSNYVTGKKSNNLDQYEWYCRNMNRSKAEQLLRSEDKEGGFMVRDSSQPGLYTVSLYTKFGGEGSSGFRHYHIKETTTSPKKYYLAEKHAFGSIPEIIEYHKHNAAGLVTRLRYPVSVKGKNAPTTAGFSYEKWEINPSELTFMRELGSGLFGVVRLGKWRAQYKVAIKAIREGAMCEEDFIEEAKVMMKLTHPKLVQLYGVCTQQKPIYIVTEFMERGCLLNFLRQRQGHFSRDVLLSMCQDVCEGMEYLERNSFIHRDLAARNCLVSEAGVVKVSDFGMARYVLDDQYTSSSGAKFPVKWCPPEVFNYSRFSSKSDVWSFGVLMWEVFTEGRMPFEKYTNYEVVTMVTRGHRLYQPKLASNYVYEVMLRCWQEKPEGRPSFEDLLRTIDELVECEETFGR

How did the residual activity (CSF1R (human)) turn out when `COc1cc2nccc(Oc3ccc(NC(=S)NC(=O)c4ccccc4C)cc3)c2cc1OC` was run?
Its residual activity is 10.5%.

And the residual activity (SRPK2 (human))?
The residual activity was 93.4%.

What about the residual activity (PRKD2 (human)) of the same molecule?
Its residual activity is 86.8%.

And the residual activity (BRSK2 (human))?
Its residual activity is 93%.

And the residual activity (TEC (human))?
The residual activity was 90.8%.

And the residual activity (SRPK1 (human))?
The residual activity was 98%.

And the residual activity (RET (human))?
Its residual activity is 86.7%.

And the residual activity (MAP2K2 (human))?
Its residual activity is 79.4%.

And the residual activity (RAF1 (human))?
Its residual activity is 97%.

And the residual activity (CDK6 CCND3 (human))?
The residual activity was 97.3%.

What about the residual activity (RPS6KA6 KD1 KD2 (human)) of the same molecule?
The residual activity was 93%.

And the residual activity (DYRK2 (human))?
The residual activity was 87.5%.

And the residual activity (CAMK2D (human))?
The residual activity was 102%.

And the residual activity (RPS6KA4 KD2 (human))?
The residual activity was 99.7%.

And the residual activity (TYRO3 (human))?
The residual activity was 92.2%.

And the residual activity (FLT3 (human))?
The residual activity was 46.6%.

And the residual activity (CHEK2 (human))?
The residual activity was 67%.

And the residual activity (VRK1 (human))?
Its residual activity is 96.3%.

What about the residual activity (TGFBR2 (human)) of the same molecule?
Its residual activity is 96.7%.

And the residual activity (EPHA2 (human))?
The residual activity was 86.9%.

And the residual activity (MAP2K1 (human))?
The residual activity was 88.3%.

And the residual activity (ACVR1B (human))?
The residual activity was 92.1%.

What about the residual activity (HCK (human)) of the same molecule?
The residual activity was 4.93%.

And the residual activity (EPHB3 (human))?
Its residual activity is 95.7%.

And the residual activity (DYRK1A (human))?
The residual activity was 95.4%.

What about the residual activity (RPS6KB1 (human)) of the same molecule?
The residual activity was 98%.

And the residual activity (SRMS (human))?
Its residual activity is 111%.

And the residual activity (NEK2 (human))?
Its residual activity is 89%.

What about the residual activity (FGFR1 (human)) of the same molecule?
Its residual activity is 75.7%.

And the residual activity (MAP3K14 (human))?
The residual activity was 106%.

And the residual activity (CSNK1G2 (human))?
Its residual activity is 106%.

What about the residual activity (DYRK3 (human)) of the same molecule?
Its residual activity is 90.8%.

What about the residual activity (BRSK1 (human)) of the same molecule?
Its residual activity is 87%.

And the residual activity (CLK1 (human))?
The residual activity was 89.9%.

And the residual activity (FRK (human))?
Its residual activity is 27.5%.

And the residual activity (DYRK1B (human))?
Its residual activity is 110%.

And the residual activity (GSG2 (human))?
The residual activity was 95.9%.

What about the residual activity (CDK5 CDK5R1 p35 (human)) of the same molecule?
Its residual activity is 100%.

What about the residual activity (NEK6 (human)) of the same molecule?
Its residual activity is 92.4%.

And the residual activity (PLK3 (human))?
The residual activity was 92.1%.

And the residual activity (MERTK (human))?
Its residual activity is 32.3%.

What about the residual activity (CSNK1A1 (human)) of the same molecule?
Its residual activity is 96.3%.

What does the source list for `CC(C)n1cnc2c(Nc3cccc(Cl)c3)nc(NCCO)nc21`?
residual activity (CSF1R (human)): 94.8%; residual activity (SRPK2 (human)): 37.1%; residual activity (PRKD2 (human)): 88.1%; residual activity (BRSK2 (human)): 95%; residual activity (TEC (human)): 113%; residual activity (SRPK1 (human)): 61.7%; residual activity (RET (human)): 82.9%; residual activity (MAP2K2 (human)): 97.6%; residual activity (RAF1 (human)): 105%; residual activity (CDK6 CCND3 (human)): 89.7%; residual activity (RPS6KA6 KD1 KD2 (human)): 74.8%; residual activity (DYRK2 (human)): 93.9%; residual activity (CAMK2D (human)): 84.2%; residual activity (RPS6KA4 KD2 (human)): 83.8%; residual activity (TYRO3 (human)): 92.7%; residual activity (FLT3 (human)): 15.1%; residual activity (CHEK2 (human)): 78.5%; residual activity (VRK1 (human)): 96.3%; residual activity (TGFBR2 (human)): 70.2%; residual activity (EPHA2 (human)): 93.3%; residual activity (MAP2K1 (human)): 92.8%; residual activity (ACVR1B (human)): 101%; residual activity (HCK (human)): 78%; residual activity (EPHB3 (human)): 119%; residual activity (DYRK1A (human)): 88.6%; residual activity (RPS6KB1 (human)): 93.3%; residual activity (SRMS (human)): 85.1%; residual activity (NEK2 (human)): 97.6%; residual activity (FGFR1 (human)): 84.2%; residual activity (MAP3K14 (human)): 97.4%; residual activity (CSNK1G2 (human)): 20.6%; residual activity (DYRK3 (human)): 97.2%; residual activity (BRSK1 (human)): 93.1%; residual activity (CLK1 (human)): 77.9%; residual activity (FRK (human)): 94.2%; residual activity (DYRK1B (human)): 78.8%; residual activity (GSG2 (human)): 94.7%; residual activity (CDK5 CDK5R1 p35 (human)): 22.7%; residual activity (NEK6 (human)): 101%; residual activity (PLK3 (human)): 48.5%; residual activity (MERTK (human)): 89.7%; residual activity (CSNK1A1 (human)): 62.3%
